Test results reported in patent publication US20030064082A1, “Antipsychotic agents stimulate neurogenesis in brain” (priority 2001, published 2003).
“Also recorded” adds a separate entry of the source.

Tests used:
[1] = test system: fibroblast growth factor-2; conditions: in vivo; cited from earlier work
[2] = test system: cognition; assay: Cognitive performance of rats under long-term treatment; format: in vivo, rat; conditions: up to 90 days of treatment
Procedure: Atypical Neuroleptics Improve Cognition In this experiment, the effects of atypical neuroleptics and typical neuroleptics on cognition was evaluated. Rats were treated with either vehicle (water), Haloperidol, or Risperidone.

[3] = test system: subventricular zone (SVZ); assay: BrdU uptake (newly divided cells) in the subventricular zone of rats after 21 days of drug in drinking water; format: in vivo, rat; conditions: for BrdU positive (BrdU+) cells / mean cell counts in the subventricular zone versus vehicle control: rats, 21 days in drinking water, single BrdU injection at day 20
Procedure: Groups of age- and weight-matched (five rats per group) adult male Wistar rats were fed ad libitum for 21 day s with either Haloperidol, 0.4 mg/kg/day, Risperidone (Janssen Pharmaceutica Res Foundation, Piscataway, N.J.) 0.5 mg/kg/day, or Olanzapine (Ely Lilly and Co., Indianapolis, Ind.) 2 mg/kg/day. Control groups received vehicle only. All drugs were administered in drinking water. Water bottles were tightly sealed with leak-proof lids. Fluid intake was measured for each animal for every 3 days and fresh drug was replaced accordingly to maintain the daily dosage.
On the 20th day of treatment, bromodeoxyuridine (BrdU, Sigma Chemical, St. Louis, Mo.), dissolved in distilled water, was injected intraperitonally in a volume of 0.3 ml or less per rat to deliver a dosage of 50 mg/kg, for the labeling of newly divided cells. One day after the BrdU injection, rats were anesthetized under ketamine (100 mg/kg) and xylazine (0.6 mg/kg) anesthesia with saline cardiac perfusion. Brains were removed quickly, placed in a brain matrix, cut into 5-mm blocks, cryoprotected in O.C.T. (Tissue-Tek) compound and frozen in isopentane in liquid nitrogen. Samples were stored at −80° C. until immunostaining.
Coronal brain sections, 10 μm-thick, were cut in a cryotome. Every fifth section was processed for immunohistochemistry with anti-BrdU antibody (Sigma Chemical). Sections were fixed in 4% paraformaldehyde and denatured in 2 N HCl for 30 min. Following incubation with primary antibody, sections were developed with avidin-biotin reagents using a biotinylated donkey anti-mouse-IgG antibody (Vector Labs., Burlingame, Calif.) and diaminobenzidine (DAB). Separate investigators performed sectioning, immunostaining, and counting of BrdU-positive cells in a double-blinded manner. To ensure consistency, one investigator who was unaware of treatment and staining protocols was responsible for counting BrdU-positive cells for the entire study.
SVZ was identified as the cell layer ventral and lateral to the ependymal layer. […] Cells along the lateral aspect of the subependymal region including the dorsolateral angle of the ventricle on both left and right hemispheres, and ventral to the corpus callosum were counted. The few BrdU-positive cells present outside this area were not counted. Five sections from each animal were counted and the average total BrdU positive cells calculated. To validate the BrdU staining of newly divided cells, an antibody against proliferating cell nuclear antigen (PCNA), from Sigma Chemical, was also used.
In these experiments, the effects on neurogenesis of treatment of animals with the atypical neuroleptics, Risperidone and Olanzapine, was assessed. […] In the experiments shown in FIG. 1, rats were treated with a vehicle, a typical neuroleptic, or an atypical neuroleptic for 21 day s. A single injection of BrdU was given to each rat intraperitoneally at day 20. Sections from brains of each animal were prepared and frozen for subsequent analysis. For immunostaining, frozen sections from rat brain were incubated with a monoclonal mouse-anti BrdU antibody, and a biotinylated anti-mouse secondary antibody and developed with avidin-biotin reagent and DAB. Shown in FIG. 1 is the staining for: (A) a vehicle-treated control rat; (B) a Haloperidol-treated rat; (C) a Risperidone-treated rat; and (D) an Olanzapine-treated rat. The arrows show some of the BrdU+ cells. […]
For quantification, the number of BrdU positive cells was counted for each group. […]

[4] = test system: hippocampal dentate gyrus; assay: Double immunofluorescent staining BrdU/NeuN in the hippocampal dentate gyrus; format: in vivo, rat; conditions: 21 days, single BrdU injection at day 20
Procedure: Tissue sections from intestinal mucosa, where many new cells are generated, were used as positive controls. […] Omission of the primary, anti-BrdU antibody provided additional negative controls.
(§1) In these experiments, the effect of the atypical neuroleptics in the hippocampus was evaluated. In the experiments shown in FIG. 5, rats were treated with vehicle, a typical neuroleptic (Haloperidol) (data not shown), or an atypical neuroleptic (Risperidone or Olanzapine) for 21 day s. A single injection of BrdU was given to each rat intraperitoneally at day 20. Frozen sections from rat brain were incubated with a monoclonal mouse-anti BrdU antibody and a biotinylated anti-mouse secondary antibody and developed with avidin-biotin reagent and DAB.
The animal was treated with Olanzapine for 21 day s and a single injection of BrdU given intraperitoneally at day 20. Frozen sections were incubated with sheep-anti BrdU and mouse-anti NeuN antibodies. Secondary antibodies were a combination of Cy-3-conjugated anti-sheep antibody and Cy-2-conjugated anti-mouse antibody.

[5] = test system: nerve growth factor; conditions: in vitro; cited from earlier work
[6] = test system: hippocampal dentate gyrus; assay: BrdU+ cell count in the hippocampal dentate gyrus; format: in vivo, rat; conditions: 21 days, single BrdU injection at day 20
Procedure: as §1

[7] = test system: subventricular zone (SVZ); assay: Double immunofluorescent staining BrdU/NeuN and BrdU/GFAP in the subventricular zone, weekly BrdU injection; format: in vivo, rat; conditions: 21 days, BrdU injected at day 7, 14 and 20
Source text: A second study was undertaken in which 15 rats were divided in three treatment groups: Olanzapine-, haldol-, and vehicle-treated. In this study, BrdU injection was given once a week (starting on day 7) and one animal from each group was killed on days 14, 21, 28, 35, and 42. Tissue sections from this study were used in double immunofluorescent staining for either BrdU/NeuN or BrdU/glial fibrillary acidic protein (GFAP).
To evaluate whether the BrdU-positive cells expressed any neuronal or astrocytic markers, sections were subjected to double immunofluorescent staining, using sheep anti-BrdU serum (Biodesign) in combination with either a mouse anti-NeuN (as a neuronal marker, Chemicon, Tememcula, Calif.) or a rabbit anti-glial fibrillary acidic protein (an astrocytic marker, Dako, Carpinteria, Calif.), and the appropriate secondary antibodies that had been conjugated with cyanin dyes were used for visualization (Jackson Lab, Bar Harbor, Me.). […]
To evaluate whether the BrdU-positive cells express any cell type-specific marker, double immunofluoresence microscopy using either anti-NeuN or anti-GFAP antibody in combination with anti-BrdU antibody was performed. […] No BrdU+/GFAP+ cells were detected. Although the double-stained (BrdU+/NeuN+) cells were not quantified, there were clearly more BrdU+/NeuN+ in rats treated with the atypical neuroleptics than that in the untreated control rats.

[8] = test system: superoxide dismutase; conditions: in vitro; cited from earlier work
[9] = test system: nerve growth factor (NGF)-receptor; conditions: in vitro; cited from earlier work

SMILES	fibroblast growth factor-2 (FGF-2) expression [1]	cognitive performance as compared to the vehicle [2]	mean cell counts in the subventricular zone versus Olanzapine and Risperidone (Tukey multiple comparison) ([3]; 21 days, n=5)	BrdU positive (BrdU+) cells / mean cell counts in the subventricular zone versus vehicle control [3]	BrdU positive (BrdU+) cells / mean cell counts in the subventricular zone versus vehicle control ([3]; listed as Haldolperidol)	NeuN (or GFAP) expression of BrdU+ cells in the hippocampus [4]	expression of nerve growth factor [5]	average numbers of BrdU-positive cells in the hippocampal dentate gyrus versus control group [6]	statistical significance of the increase in neurogenesis in the hippocampus [6]	BrdU+/GFAP+ cells in the SVZ [7]	BrdU+/NeuN+ cells in the SVZ [7]	expression of superoxide dismutase [8]	expression of nerve growth factor (NGF)-receptor [9]
CN1CCN(C2=Nc3cc(Cl)ccc3Nc3ccccc32)CC1 [Clozapine, 8-chloro-11-(4-methyl-1-piperazinyl)-5H-dibenzo [b,e] [1,4] diazepine]	increases; also recorded: modulate												
O=C(CCCN1CCC(O)(c2ccc(Cl)cc2)CC1)c1ccc(F)cc1 [Haloperidol]		significantly impaired	significantly lower	No differences	not significantly different	did not express NeuN (or GFAP)							
Cc1cc2c(s1)Nc1ccccc1N=C2N1CCN(C)CC1 [Olanzapine, 2-methyl-4-(4-methyl-1-piperazinyl)-10H-thieno[2,3-b] [1,5]benzodiazepine]				significant increase; also recorded: significantly higher		3 BrdU+/NeuN− cells in the subgranular layer and a BrdU+/NeuN+ cell in the apical region of the granular cell layer	stimulate expression	higher than the control group	not statistically significant	No BrU+/GFAP+ cells were detected; also recorded: essentially none	numerous; also recorded: increase	induces the expression	induces the expression
Cc1nc2n(c(=O)c1CCN1CCC(c3noc4cc(F)ccc34)CC1)CCCC2 [Risperidone, 3-[2-[4-(6-fluoro-1,2-benzisoxazol-3-yl)-1-piperidinyl]ethyl]-6,7,8,9-tetrahydro-2-methyl-4H-pyrido[1,2-a]pyrimidin-4-one]		improved performance		significant increase; also recorded: significantly higher				higher than the control group	not statistically significant				
